The values that follow come from patent US20240382597A1, “FORMULATIONS OF ANTI-INFLAMMATORY AGENTS COMPRISING MSM WITH ENHANCED SOLUBILITY IN WATER” (LIVIONEX, Inc., priority 2021, published 2024).

Molecules are shown by their SMILES.

A short description of data set [1]: solubility in water of anti-inflammatory agents, alone and in formulations comprising MSM. Type of data set: physicochemical. The source says:
The increases in solubility in water of certain representative anti-inflammatory agents in formulations comprising MSM (about 5.4% w/w; range between 0.1 wt. % to about 15 wt. %, typically around 5%) are as follows: […]

The conditions of data set [2]: at 79° F.; cited from earlier work.
The mark [3] stands for this setting: in formulations comprising MSM (about 5.4% w/w; range 0.1 wt. % to about 15 wt. %).
Where [4] appears, read: without MSM (starting value of the increase).

As to `C[C@@H]1C[C@H]2[C@@H]3CCC4=CC(=O)C=C[C@]4(C)[C@@]3(F)[C@@H](O)C[C@]2(C)[C@@]1(O)C(=O)CO` [Dexamethsone, dexamethasone], the solubility in water was ~250 mg per ml of water in data set [1] (setting [3]) and “insoluble” in data set [1] (setting [4]).
On the same counts, the results for `O=C(O)Cc1ccccc1Nc1c(Cl)cccc1Cl` [Diclofenac, diclofenac] are 50 mg per ml of water and 0.004 mg per ml of water.
As to `CC(C)Cc1ccc(C(C)C(=O)O)cc1` (stereo not drawn) [Ibuprofen, ibuprofen], the solubility in water in data set [1] (setting [3]) is listed as ~150 mg per ml of water; in data set [1] (setting [4]), “insoluble”.
As for `CS(C)(=O)=O` [MSM, methylsulfonylmethane], the water solubility in data set [2] is reported as 34 % w/v.
Consider `COC(=O)c1ccccc1O` [Methyl salicylate, methyl salicylate], for which the results for the solubility in water in data set [1] (setting [3]) and in data set [1] (setting [4]) were 0.013 mg per ml of water and 0.00065 mg per ml of water, respectively.
